# Experimental data reported in patent US11524021B2, “Use of ginsenoside M1 for manufacturing medicament for treating oral cancer” (priority 2018, dated 2022).
# Assays:
# [1] = test system: human oral cancer cells SAS xenografts; assay: Tumor growth in human oral cancer SAS xenograft mice; type: in vivo, BALB/c nude (nu/nu) mice; conditions: 5 successive days
# Method: FIGS. 6A-6C show oral administration of ginsenoside M1 reduced human oral cancer growth in mice. Human oral cancer cell line SAS cells Xenografts mice with tumor size around 40˜60 mm^3 were given a daily oral administration of either ginsenoside M1 (30-90 mg/kg) or vehicle for 5 successive days. (FIG. 6A) The tumor volume was determined by measurement of the length (L) and width (W) of the tumor and calculated as tumor volume (mm3)=(L×W^2)/2. (FIG. 6B) The tumor weight was measured after the mice were scarified. (FIG. 6C) The body weight of mice was recorded. The data were expressed as mean±SD; n=6. ** and *** indicate a significant difference at the level of p<0.01 and p<0.001, respectively, compared to vehicle-control mice. (One-way ANOVA with Dunnett's multiple comparisons test).
# FIGS. 7A-7C show subcutaneous (SC) injection of ginsenoside M1 reduced human oral cancer growth in mice. Human oral cancer cell line SAS cells Xenografts mice with tumor size around 40˜60 mm^3 were given a daily SC injection of either ginsenoside M1 (20 mg/kg) or vehicle for 5 successive days. (FIG. 7A) The tumor volume was determined by measurement of the length (L) and width (W) of the tumor and calculated as tumor volume (mm3)=(L×W^2)/2. (FIG. 7B) The tumor weight was measured after the mice were scarified. (FIG. 7C) The body weight of mice was recorded. The data were expressed as mean±SD; n=6. ** indicates a significant difference at the level of p<0.01, compared to vehicle-control mice. (One-way ANOVA with Dunnett's multiple comparisons test).
# To evaluate the anti-cancer activity of ginsenoside M1 in vivo, human oral cancer xenografts were used. Six-week-old male congenital athymic BALB/c nude (nu/nu) mice were purchased from BioLASCO Taiwan Co., Ltd (Ilan, Taiwan), and housed in a room under controlled temperature (23±3° C.) and relative humidity (50±5%). Animal experiments were performed with the approval of the Institutional Animal Care and Use Committee of the National Ilan University (approval number: No. 106-13) according to the NIH Guide for the Care and Use of Laboratory Animals. Xenografts mice were established by subcutaneous (SC) injection of 2×10^6 human oral cancer cells SAS (in 75 μl PBS+75 μl Matrigel) on the backs of the nude mice. After the tumor has reached about 40˜60 mm^3 in size, the mice were randomized into six groups (six mice each): (1) oral vehicle control; (2) oral 30 mg/kg ginsenoside M1; (3) oral 60 mg/kg ginsenoside M1; (4) oral 90 mg/kg ginsenoside M1; (5) SC vehicle control; (6) SC 20 mg/kg ginsenoside M1. The mice were given a daily oral administration or SC injection of either vehicle or ginsenoside M1 for 5 successive days. The mice were scarified at 24 h after received the last dose of ginsenoside M1 or vehicle. The tumor volume (TV) was determined by measurement of the length (L) and width (W) of the tumor. The TV on day n (TVn) was calculated as TV (mm3)=(L×W^2)/2. The relative tumor volume on day n (RTVn) versus day 0 was expressed according to the following formula: RTVn=TVn/TV0. […] The data were expressed as mean±SD; n=6. ** and *** indicate a significant difference at the level of p<0.01 and p<0.001, respectively, compared to vehicle-control mice. (One-way ANOVA with Dunnett's multiple comparisons test).
# [2] = test system: human oral cancer cells SAS; assay: Colony formation of SAS cells; type: cell-based; conditions: 5˜20 μg/ml, 10 days
# Method: FIGS. 4A-4B show ginsenoside M1 reduced the colony formation ability of human oral cancer cells. Human oral cancer cell line SAS cells (FIG. 4A) or OECM-1 cells (FIG. 4B) were incubated for 10 days with ginsenoside M1 (5˜20 μg/ml) or vehicle (0.1% DMSO). The cells were fixed in 4% ice-cold paraformaldehyde and stained with 0.1% crystal violet, and the colonies were counted. The data were expressed as mean±SD; n=4. * and *** indicate a significant difference at the level of p<0.05 and p<0.001, respectively, compared to vehicle-control cells. (One-way ANOVA with Dunnett's multiple comparisons test).
# Plate 150 human oral cancer cells SAS or OECM-1 per 6-cm dish in 3 ml of culture medium and were grown overnight at 37° C. in a 5% CO2 incubator. The cells were incubated for 10 days with ginsenoside M1 (5˜20 μg/ml) or vehicle. The cells were changed for fresh medium containing the same concentration of ginsenoside M1 at day 5. The cells were fixed in 4% ice-cold paraformaldehyde for 15 min at […], and stained with 0.1% crystal violet 10 min at room temperature. […] The data were expressed as mean±SD; n=4. * and *** indicate a significant difference at the level of p<0.05 and p<0.001, respectively, compared to vehicle-control cells. (One-way ANOVA with Dunnett's multiple comparisons test).
# [3] = test system: human oral cancer SAS cells; assay: Migration of SAS cells, wound healing assay; type: cell-based; conditions: 24 h
# Method: FIGS. 5A-5B show ginsenoside M1 reduced the migration ability of human oral cancer cells. Human oral cancer cell line SAS cells (FIG. 5A) or OECM-1 cells (FIG. 5B) were cultured in 6-cm dish until the cells reached 100% confluence forming a monolayer. A clear zone was created by scratching using a sterile 200-μl pipette tip. The cells were incubated for 24 h (SAS cells) or 18 h (OECM-1 cells) with ginsenoside M1 (5˜10 μg/ml) or (0.1% DMSO). The migration distance was measured and compared to the vehicle-control cells. The data were expressed as mean±SD; n=3. *** indicates a significant difference at the level of p<0.001, compared to vehicle-control cells. (One-way ANOVA with Dunnett's multiple comparisons test).
# The cell migration ability was measured by wound healing assay. Plate 5×10^6 human oral cancer SAS cells or OECM-1 cells per 6-cm dish in 2 ml of culture medium and were grown overnight at 37° C. in a 5% CO2 incubator until the cells reached 100% confluence forming a monolayer. We used a sterile 200-μl pipette tip to create a scratched clear zone on the culture dish, and the wounds photographed by a phase contrast microscope as the baseline. […] The data were expressed as mean±SD; n=3. *** indicates a significant difference at the level of p<0.001, compared to vehicle-control cells. […]
structure (smiles),measurement,setting,value
"CC(C)=CCC[C@](C)(O[C@@H]1OC(CO)[C@@H](O)[C@@H](O)C1O)[C@H]1CC[C@]2(C)C1[C@H](O)CC1[C@@]3(C)CC[C@H](O)C(C)(C)C3CC[C@]12C (stereo partly drawn) [ginsenoside M1, 20-O-β-D-glucopyranosyl-20(S)-protopanaxadiol]",tumor size compared to vehicle control group,[1]; SC injection 20 mg/kg daily,significantly reduced
same,tumor weight compared to vehicle control group,[1]; SC injection 20 mg/kg daily,significantly reduced
same,tumor size compared to vehicle control group,[1]; oral 30 mg/kg daily,did not significant reduce
same,tumor weight compared to vehicle control group,[1]; oral 30 mg/kg daily,did not significant reduce
same,tumor size compared to vehicle control group,[1]; oral 60 mg/kg daily,did not significant reduce
same,tumor weight compared to vehicle control group,[1]; oral 60 mg/kg daily,did not significant reduce
same,tumor size compared to vehicle control group,[1]; oral 90 mg/kg daily,significantly reduced
same,colony formation ability of SAS cells,[2],dose-dependently inhibited
same,migration ability of SAS cells,[3]; 5 μg/ml,significantly inhibited
same,migration ability of SAS cells,[3]; 10 μg/ml,significantly inhibited
